In paper PMC6514978, “Synthesis, Antibacterial Activities, Mode of Action and Acute Toxicity Studies of New Oxazolidinone-Fluoroquinolone Hybrids” (Molecules, 2019):
Converted amounts (≈) assume the structure as drawn. Like-named read-outs stand apart in the source and are kept apart here.

Key:
[1] = system: S. agalactiae^R (13B317), levofloxacin-resistant S. agalactiae; experiment: MIC, broth microdilution (CLSI), clinical isolate; assay type: cell-based; conditions: Streptococcus agalactiae; levofloxacin-resistant S. agalactiae (13B317)
Text: (§1) 6 standard strains and 3 clinical isolates were used to the preliminary evaluation of in vitro antibacterial activities of oxazolidinone-fluoroquinolone hybrids. For the further evaluation of hybrids OBP-4 and OBP-5, 263 clinical isolates including S. aureus (46), S. haemolyticus(32), S. epidermidis (10), E. faecalis (72), E. faecium (47), S. pneumoniae (13), H. parasuis (34), S. suis (9), and 8 resistant strains including MRSA, MRSE, CIP-resistant S. aureus and S. haemolyticus, VAN and quinolone-resistant S. pneumoniae, LZD-resistant E. faecalis, LZD/VAN and quinolone-resistant E. faecium were collected and tested.
(§2) Susceptibility testing of oxazolidinone-fluoroquinolone hybrids against various bacteria was performed by the broth microdilution method as outlined by the Clinical and Laboratory Standards Institute (CLSI). Three types of media, including cation-adjusted Mueller Hinton broth, Haemophilus Test Medium and cation-adjusted Mueller Hinton broth that contained 3%–5% lysed horse blood, were used to culture the corresponding bacteria. All compounds including comparator drugs were dissolved in an appropriate solvent at a concentration of 2.048 mg/mL and then serially diluted two-fold to provide the required concentrations. A final inoculum of 5 × 10^5 CFU/mL was used and plates were read after incubation for 16–24 h at 35 °C. […] Standard quality control strains (ATCC) were included throughout. Each determination was repeated in triplicate.

MRSA (13B262) = experiment: MIC, broth microdilution (CLSI), clinical isolate; assay type: cell-based; conditions: Staphylococcus aureus
Text: as §1, §2

VRE (13B330) = experiment: MIC, broth microdilution (CLSI), clinical isolate; assay type: cell-based, vancomycin-resistant enterococcus; conditions: Enterococcus
Text: as §1, §2

[2] = system: S. pneumoniae (ATCC49619); experiment: MIC, broth microdilution (CLSI), standard strain; assay type: cell-based; conditions: Streptococcus pneumoniae
Text: as §1, §2

[3] = system: P. Aeruginosa (ATCC27853); experiment: MIC, broth microdilution (CLSI), standard strain; assay type: cell-based; conditions: Pseudomonas aeruginosa; P. Aeruginosa (ATCC27853); read-out: MIC
Text: as §1, §2

S. aureus (ATCC29213) = experiment: MIC, broth microdilution (CLSI), standard strain; assay type: cell-based; conditions: Staphylococcus aureus
Text: as §1, §2

E. faecalis (ATCC29212) = experiment: MIC, broth microdilution (CLSI), standard strain; assay type: cell-based; conditions: Enterococcus faecalis
Text: as §1, §2

[4] = system: H. influenzae (ATCC49247); experiment: MIC, broth microdilution (CLSI), standard strain; assay type: cell-based; conditions: Haemophilus influenzae
Text: as §1, §2

E. coli (ATCC25922) = experiment: MIC, broth microdilution (CLSI), standard strain; assay type: cell-based; conditions: Escherichia coli; E. coli (ATCC25922); read-out: MIC
Text: as §1, §2

[5] = system: S. pneumoniae (13) clinical isolates; experiment: Susceptibility of clinical isolates (MIC); assay type: cell-based, Streptococcus pneumoniae; conditions: Streptococcus pneumoniae, S. pneumoniae, 13 clinical isolates
Procedure: as §2, with “All compounds including comparator drugs were dissolved in an appropriate solvent at a concentration of 2.048 mg/mL and then serially diluted two-fold to provide the required concentrations.” left out

[6] = system: H. parasuis (34) clinical isolates; experiment: Susceptibility of clinical isolates (MIC); assay type: cell-based, Haemophilus parasuis; conditions: H. parasuis, 34 clinical isolates
Procedure: as §2, with “All compounds including comparator drugs were dissolved in an appropriate solvent at a concentration of 2.048 mg/mL and then serially diluted two-fold to provide the required concentrations.” left out

[7] = system: LZD-resistant E. faecalis; experiment: microbe, parasite or virus in culture; assay type: cell-based; conditions: Enterococcus faecalis
Procedure: (§3) 6 standard strains and 3 clinical isolates were used to the preliminary evaluation of in vitro antibacterial activities of oxazolidinone-fluoroquinolone hybrids.
as §2, with “All compounds including comparator drugs were dissolved in an appropriate solvent at a concentration of 2.048 mg/mL and then serially diluted two-fold to provide the required concentrations.” left out

[8] = system: S. epidermidis (10) clinical isolates; experiment: Susceptibility of clinical isolates (MIC); assay type: cell-based, Staphylococcus epidermidis; conditions: Staphylococcus epidermidis, S. epidermidis, 10 clinical isolates
Procedure: as §2, with “All compounds including comparator drugs were dissolved in an appropriate solvent at a concentration of 2.048 mg/mL and then serially diluted two-fold to provide the required concentrations.” left out

[9] = system: S. aureus (46) clinical isolates; experiment: Susceptibility of clinical isolates (MIC); assay type: cell-based, Staphylococcus aureus; conditions: Staphylococcus aureus, S. aureus, 46 clinical isolates
Procedure: as §2, with “All compounds including comparator drugs were dissolved in an appropriate solvent at a concentration of 2.048 mg/mL and then serially diluted two-fold to provide the required concentrations.” left out

[10] = system: E. faecium (47) clinical isolates; experiment: Susceptibility of clinical isolates (MIC); assay type: cell-based, Enterococcus faecium; conditions: Enterococcus faecium, E. faecium, 47 clinical isolates
Procedure: as §2, with “All compounds including comparator drugs were dissolved in an appropriate solvent at a concentration of 2.048 mg/mL and then serially diluted two-fold to provide the required concentrations.” left out

MRSE = experiment: MIC against drug-resistant strain; assay type: cell-based, S. epidermidis; conditions: Staphylococcus epidermidis, read-out: MIC
Procedure: as §3
as §2, with “All compounds including comparator drugs were dissolved in an appropriate solvent at a concentration of 2.048 mg/mL and then serially diluted two-fold to provide the required concentrations.” left out

[11] = system: S. suis (9) clinical isolates; experiment: Susceptibility of clinical isolates (MIC); assay type: cell-based, Streptococcus suis; conditions: Streptococcus suis, S. suis, 9 clinical isolates
Procedure: as §2, with “All compounds including comparator drugs were dissolved in an appropriate solvent at a concentration of 2.048 mg/mL and then serially diluted two-fold to provide the required concentrations.” left out

[12] = system: E. faecalis (72) clinical isolates; experiment: Susceptibility of clinical isolates (MIC); assay type: cell-based, Enterococcus faecalis; conditions: E. faecalis, 72 clinical isolates
Procedure: as §2, with “All compounds including comparator drugs were dissolved in an appropriate solvent at a concentration of 2.048 mg/mL and then serially diluted two-fold to provide the required concentrations.” left out

[13] = system: S. haemolyticus (32) clinical isolates; experiment: Susceptibility of clinical isolates (MIC); assay type: cell-based, Staphylococcus haemolyticus; conditions: Staphylococcus haemolyticus, S. haemolyticus, 32 clinical isolates
Procedure: as §2, with “All compounds including comparator drugs were dissolved in an appropriate solvent at a concentration of 2.048 mg/mL and then serially diluted two-fold to provide the required concentrations.” left out

[14] = system: CIP-resistant S. haemolyticus; experiment: MIC against drug-resistant strain; assay type: cell-based; conditions: Staphylococcus haemolyticus; S. haemolyticus, CIP-resistant; read-out: MIC
Procedure: as §3
as §2, with “All compounds including comparator drugs were dissolved in an appropriate solvent at a concentration of 2.048 mg/mL and then serially diluted two-fold to provide the required concentrations.” left out

[15] = system: VAN and quinolone-resistant E. faecium; experiment: MIC against drug-resistant strain; assay type: cell-based; conditions: Enterococcus faecium; E. faecium, VAN and quinolone-resistant; read-out: MIC
Procedure: as §3
as §2, with “All compounds including comparator drugs were dissolved in an appropriate solvent at a concentration of 2.048 mg/mL and then serially diluted two-fold to provide the required concentrations.” left out

CIP-resistant S. aureus = experiment: MIC against drug-resistant strain; assay type: cell-based; conditions: Staphylococcus aureus; S. aureus, CIP-resistant; read-out: MIC
Procedure: as §3
as §2, with “All compounds including comparator drugs were dissolved in an appropriate solvent at a concentration of 2.048 mg/mL and then serially diluted two-fold to provide the required concentrations.” left out

[16] = system: LZD and quinolone-resistant E. faecium; experiment: MIC against drug-resistant strain; assay type: cell-based; conditions: Enterococcus faecium; E. faecium, LZD and quinolone-resistant; read-out: MIC
Procedure: as §3
as §2, with “All compounds including comparator drugs were dissolved in an appropriate solvent at a concentration of 2.048 mg/mL and then serially diluted two-fold to provide the required concentrations.” left out

[17] = system: VAN and quinolone-resistant S. pneumoniae; experiment: MIC against drug-resistant strain; assay type: cell-based; conditions: Streptococcus pneumoniae; S. pneumoniae, VAN and quinolone-resistant; read-out: MIC
Procedure: as §3
as §2, with “All compounds including comparator drugs were dissolved in an appropriate solvent at a concentration of 2.048 mg/mL and then serially diluted two-fold to provide the required concentrations.” left out

MRSA = experiment: MIC against drug-resistant strain; assay type: cell-based; conditions: Staphylococcus aureus, read-out: MIC
Procedure: as §3
as §2, with “All compounds including comparator drugs were dissolved in an appropriate solvent at a concentration of 2.048 mg/mL and then serially diluted two-fold to provide the required concentrations.” left out

[18] = E. faecalis (ATCC29212), read-out: MIC

Structure (SMILES): O=C(O)c1cn(C2CC2)c2cc(N3CCC(O)(COc4ccc(N5C[C@H](CO)OC5=O)cc4F)CC3)c(F)cc2c1=O [CZD, cadazolid, reference compound]
- MIC [1]: 0.125 µg/mL (≈ 0.213 µM)
- MIC (MRSA (13B262)): 0.5 µg/mL (≈ 0.854 µM)
- MIC (VRE (13B330)): 0.25 µg/mL (≈ 0.427 µM)
- MIC [2]: 0.062 µg/mL (≈ 0.106 µM)
- MIC [3]: 64 µg/mL (≈ 109 µM)
- MIC (S. aureus (ATCC29213)): 0.5 µg/mL (≈ 0.854 µM)
- MIC (E. faecalis (ATCC29212); [18]): 0.5 µg/mL (≈ 0.854 µM)
- MIC [4]: 1 µg/mL (≈ 1.71 µM)
- MIC (E. coli (ATCC25922)): 8 µg/mL (≈ 13.7 µM)

Structure (SMILES): CCN1CCN(c2cc3c(cc2F)c(=O)c(C(=O)O)cn3C2CC2)CC1 [ENR, enrofloxacin]
- MIC50 ([5]; read-out: MIC50): 32 µg/mL (≈ 89 µM)
- MIC90 ([5]; read-out: MIC90): > 32 µg/mL
- MIC50 ([6]; Glaesserella parasuis, read-out: MIC50): ≤ 0.0625 µg/mL
- MIC90 ([6]; Glaesserella parasuis, read-out: MIC90): 1 µg/mL (≈ 2.78 µM)
- MIC Range [6]: ≤0.0625 to 1 µg/mL
- MIC [7]: 1 µg/mL (≈ 2.78 µM)
- MIC50 ([8]; read-out: MIC50): 2 µg/mL (≈ 5.56 µM)
- MIC90 ([8]; read-out: MIC90): 4 µg/mL (≈ 11.1 µM)
- MIC ([8]; read-out: MIC Range): 0.125 to 4 µg/mL (≈ 0.348 to 11.1 µM)
- MIC50 ([9]; read-out: MIC50): 2 µg/mL (≈ 5.56 µM)
- MIC90 ([9]; read-out: MIC90): 4 µg/mL (≈ 11.1 µM)
- MIC ([9]; read-out: MIC Range): 0.0625 to 8 µg/mL (≈ 0.174 to 22.3 µM)
- MIC50 ([10]; read-out: MIC50): 2 µg/mL (≈ 5.56 µM)
- MIC90 ([10]; read-out: MIC90): 32 µg/mL (≈ 89 µM)
- MIC (MRSE): ≤ 0.0625 µg/mL
- MIC50 ([11]; read-out: MIC50): 0.25 µg/mL (≈ 0.696 µM)
- MIC90 ([11]; read-out: MIC90): 4 µg/mL (≈ 11.1 µM)
- MIC ([11]; read-out: MIC Range): 0.0625 to 8 µg/mL (≈ 0.174 to 22.3 µM)
- MIC Range [12]: ≤0.0625 to 2 µg/mL
- MIC50 ([12]; Enterococcus faecalis): 0.5 µg/mL (≈ 1.39 µM)
- MIC90 ([12]; Enterococcus faecalis): 0.5 µg/mL (≈ 1.39 µM)
- MIC50 ([13]; read-out: MIC50): ≤ 0.0625 µg/mL
- MIC90 ([13]; read-out: MIC90): 0.5 µg/mL (≈ 1.39 µM)
- MIC ([13]; read-out: MIC Range): 0.0625 to 8 µg/mL (≈ 0.174 to 22.3 µM)
- MIC [14]: 8 µg/mL (≈ 22.3 µM)
- MIC [15]: > 32 µg/mL
- MIC (CIP-resistant S. aureus): 2 µg/mL (≈ 5.56 µM)
- MIC [16]: > 32 µg/mL
- MIC [17]: > 32 µg/mL
- MIC (MRSA): 0.25 µg/mL (≈ 0.696 µM)

Structure (SMILES): COc1c(N2C[C@@H]3CCCN[C@@H]3C2)c(F)cc2c(=O)c(C(=O)O)cn(C3CC3)c12 [MXF, moxifloxacin, reference compound]
- MIC [1]: 4 µg/mL (≈ 9.96 µM)
- MIC (MRSA (13B262)): 8 µg/mL (≈ 19.9 µM)
- MIC (VRE (13B330)): 64 µg/mL (≈ 159 µM)
- MIC [2]: 0.062 µg/mL (≈ 0.154 µM)
- MIC [3]: 4 µg/mL (≈ 9.96 µM)
- MIC (S. aureus (ATCC29213)): 0.031 µg/mL (≈ 0.0772 µM)
- MIC (E. faecalis (ATCC29212); ATCC29212): 0.125 µg/mL (≈ 0.311 µM)
- MIC [4]: 0.008 µg/mL (≈ 0.0199 µM)
- MIC (E. coli (ATCC25922)): 0.016 µg/mL (≈ 0.0399 µM)

Structure (SMILES): CN1COc2c(N3CCC(O)(COc4ccc(N5C[C@H](CO)OC5=O)cc4F)CC3)c(F)cc3c(=O)c(C(=O)O)cn1c23 [OBP-1]
- MIC [1]: 0.5 µg/mL (≈ 0.83 µM)
- MIC (MRSA (13B262)): 2 µg/mL (≈ 3.32 µM)
- MIC (VRE (13B330)): 1 µg/mL (≈ 1.66 µM)
- MIC [2]: 0.25 µg/mL (≈ 0.415 µM)
- MIC [3]: 64 µg/mL (≈ 106 µM)
- MIC (S. aureus (ATCC29213)): 1 µg/mL (≈ 1.66 µM)
- MIC (E. faecalis (ATCC29212); [18]): 1 µg/mL (≈ 1.66 µM)
- MIC [4]: 1 µg/mL (≈ 1.66 µM)
- MIC (E. coli (ATCC25922)): 4 µg/mL (≈ 6.64 µM)
